Assay results published in patent US20250230193A1, “CYCLIC COMPOUND HAVING SELECTIVE KRAS INHIBITORY EFFECT ON HRAS AND NRAS” (CHUGAI SEIYAKU KABUSHIKI KAISHA, priority 2022, published 2025).
Where a SMILES comes first, the peptide text is derived from it. Bridges are numbered along the chain shown (N, C = ends). [ ]: non-standard residue; d: D form. The star is where a group is joined. hPhe(3-Cl-4-CF3) = N[C@@H](CCc1ccc(C(F)(F)F)c(Cl)c1)C(=O)O; NPrPhe(4-CF3) = CCCN[C@@H](Cc1ccc(C(F)(F)F)cc1)C(=O)O; NMeGly(cPent) = CN[C@H](C(=O)O)C1CCCC1; NMeD = CN[C@@H](CC(=O)O)C(=O)O; NMeL = CN[C@@H](CC(C)C)C(=O)O; Morpholide = C1CN(*)CCO1; Ac5c = NC1(C(=O)O)CCCC1; Aze = O=C(O)[C@@H]1CCN1; NcPrGly = O=C(O)CNC1CC1; Sar = CNCC(=O)O

Experiments:
[1] = target: GDP-bound NRAS wild-type protein (Homo sapiens, UniProt P01111); experiment: Binding to NRAS by surface plasmon resonance (SPR), Single Cycle Kinetics
[2] = target: GDP-bound HRAS wild-type protein (Homo sapiens, UniProt P01112); experiment: Binding to HRAS by surface plasmon resonance (SPR), Single Cycle Kinetics
[3] = KD ratio, GDP-bound NRAS wild-type vs GDP-bound KRAS wild-type, SPR
[4] = KD ratio, GDP-bound HRAS wild-type vs GDP-bound KRAS wild-type, SPR
[5] = SPR, GDP-bound NRAS wild-type vs GDP-bound KRAS wild-type
[6] = SPR, GDP-bound HRAS wild-type vs GDP-bound KRAS wild-type

GDP-bound HRAS wild-type protein, sequence (P01112 whole entry): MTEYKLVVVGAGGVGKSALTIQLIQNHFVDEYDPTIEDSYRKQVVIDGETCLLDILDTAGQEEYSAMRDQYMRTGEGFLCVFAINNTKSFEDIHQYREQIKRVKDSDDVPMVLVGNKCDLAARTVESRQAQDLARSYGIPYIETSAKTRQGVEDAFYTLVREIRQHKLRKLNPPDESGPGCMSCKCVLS
GDP-bound NRAS wild-type protein, sequence (P01111 whole entry): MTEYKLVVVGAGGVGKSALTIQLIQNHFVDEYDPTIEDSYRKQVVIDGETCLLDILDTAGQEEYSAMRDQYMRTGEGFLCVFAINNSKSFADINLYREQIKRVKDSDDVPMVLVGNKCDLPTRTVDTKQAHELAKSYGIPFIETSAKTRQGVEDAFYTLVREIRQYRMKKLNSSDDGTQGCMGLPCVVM

## CCCN(C)C(=O)[C@@H]1CC(=O)N(C)[C@@H](CC(F)(F)F)C(=O)N[C@@H]([C@@H](C)CC)C(=O)N(C)CC(=O)N(C)[C@H]2C/C=C\CCN(C2=O)[C@@H](Cc2ccc(C(F)(F)F)cc2)C(=O)N(C)CC(=O)N[C@@H](CCc2cc(F)c(C(F)(F)F)c(F)c2)C(=O)N2C[C@H](OCC)C[C@H]2C(=O)NC2(CC(F)(F)C2)C(=O)N(C)[C@@H](C2CCCC2)C(=O)N1C [PP1734]
[1]; [3]
  NRAS/KRAS (ratio of KD value for NRAS to KD value for KRAS): A (a compound having 10 or more and less than 20 is denoted as A)
[2]; [4]
  HRAS/KRAS (ratio of KD value for HRAS to KD value for KRAS): A (a compound having 10 or more and less than 20 is denoted as A)

## CCO[C@@H]1C[C@H]2C(=O)NC3(CC(C)(C)C3)C(=O)N(C)[C@@H](C(CC)CC)C(=O)N(C)[C@H](C(=O)N(C)C)CC(=O)N(C)[C@@H](CC3CCC3)C(=O)N[C@@H]([C@@H](C)CC)C(=O)N(C)CC(=O)N(C)[C@H]3C/C=C\CCN(C3=O)[C@@H](Cc3ccc(C)cc3)C(=O)N(C)CC(=O)N[C@@H](CCc3ccc(C(F)(F)F)c(OC)c3)C(=O)N2C1 [PP2172]
[1]; [5]
  NRAS/KRAS (ratio of KD value with respect to NRAS to KD value with respect to KRAS): A (a compound having 10 or more and less than 20 is denoted as A)
[2]; [6]
  HRAS/KRAS (ratio of KD value with respect to HRAS to KD value with respect to KRAS): B (a compound having 3 or more and less than 10 is denoted as B)

## CCC[C@@H]1C[C@H]2C(=O)NC3(CCC3)C(=O)N(C)[C@@H](C3CCCC3)C(=O)N(C)[C@H](C(=O)N(C)C)CC(=O)N(C)[C@@H](CC)C(=O)N[C@@H]([C@@H](C)CC)C(=O)N(C)CC(=O)N(C)[C@H]3C/C=C\CCN(C3=O)[C@@H](Cc3ccc(C)cc3)C(=O)N(C)CC(=O)N[C@@H](CCc3cc(F)c(C(F)(F)F)c(F)c3)C(=O)N2C1 [PP2233]
[1]; [5]
  NRAS/KRAS (ratio of KD value with respect to NRAS to KD value with respect to KRAS): A (a compound having 10 or more and less than 20 is denoted as A)
[2]; [6]
  HRAS/KRAS (ratio of KD value with respect to HRAS to KD value with respect to KRAS): A (a compound having 10 or more and less than 20 is denoted as A)

## CCO[C@@H]1C[C@H]2C(=O)NC3(CCCC3)C(=O)N(C)[C@@H](C3CCCC3)C(=O)N(C)[C@H](C(=O)N3CCOCC3)CC(=O)N(C)[C@@H](CC(C)C)C(=O)N[C@@H]([C@@H](C)CC)C(=O)N(C)CC(=O)N(C)[C@H]3CCCCN(C3=O)[C@@H](Cc3ccc(C(F)(F)F)cc3)C(=O)N(C)CC(=O)N[C@@H](CCc3cc(F)c(C(F)(F)F)c(F)c3)C(=O)N2C1 [PP0554]
[1]; KD ratio NRAS/KRAS, SPR
  NRAS/KRAS (ratio of KD value with respect to GDP-bound NRAS wild-type protein to KD value with respect to KRAS): B (a compound having 3 or more and less than 10 is denoted as B)
[2]; KD ratio HRAS/KRAS, SPR
  HRAS/KRAS (ratio of KD value with respect to GDP-bound HRAS wild-type protein to KD value with respect to KRAS): B (a compound having 3 or more and less than 10 is denoted as B)

## CCCN1C(=O)[C@@H]2CCN2C(=O)CN(C2CC2)C(=O)[C@H]([C@@H](C)CC)NC(=O)[C@H](CC(C)C)N(C)C(=O)C[C@@H](C(=O)N2CCOCC2)N(C)C(=O)[C@H](C2CCCC2)N(C)C(=O)C2(CCCC2)NC(=O)[C@@H]2CCCN2C(=O)[C@H](CCc2ccc(C(F)(F)F)c(Cl)c2)NC(=O)CN(C)C(=O)[C@@H]1Cc1ccc(C(F)(F)F)cc1 [PP0273] ([NMeL]I[NcPrGly][Aze][NPrPhe(4-CF3)][Sar][hPhe(3-Cl-4-CF3)]P[Ac5c][NMeGly(cPent)][NMeD]-Morpholide; lactam N-11)
[1]; KD ratio NRAS/KRAS, SPR
  NRAS/KRAS (ratio of KD for GDP-bound NRAS wild-type to KD for KRAS): C (A compound having a KD ratio of 0.1 or more and less than 3 is denoted as C)
[2]; KD ratio HRAS/KRAS, SPR
  HRAS/KRAS (ratio of KD for GDP-bound HRAS wild-type to KD for KRAS): B (a compound having 3 or more and less than 10 is denoted as B)

## CCO[C@@H]1C[C@H]2C(=O)NC3(CCC3)C(=O)N(C)[C@@H](C3CCCC3)C(=O)N(C)[C@H](C)CC(=O)N(C)[C@@H](CC)C(=O)N[C@@H]([C@@H](C)CC)C(=O)N(C)CC(=O)N(C)[C@H]3C/C=C\CCN(C3=O)[C@@H](Cc3ccc(C(F)(F)F)cc3)C(=O)N(C)CC(=O)N[C@@H](CCc3cc(F)c(C(F)(F)F)c(F)c3)C(=O)N2C1 [PP1095]
[1]; [3]
  NRAS/KRAS (ratio of KD value with respect to NRAS to KD value with respect to KRAS): B (a compound having 3 or more and less than 10 is denoted as B)
[2]; [4]
  HRAS/KRAS (ratio of KD value with respect to HRAS to KD value with respect to KRAS): B (a compound having 3 or more and less than 10 is denoted as B)

## CCO[C@@H]1C[C@H]2C(=O)NC3(CCC3)C(=O)N(C)[C@@H](C3CCCC3)C(=O)N(C)[C@H](C(=O)N3CCCCC3)CC(=O)N(C)[C@H]3CCC/C=C/c4ccc(cc4)C[C@@H](C(=O)N(C)CC(=O)N[C@@H](CCc4cc(F)c(C(F)(F)F)c(F)c4)C(=O)N2C1)N1CC/C=C\C[C@@H](C1=O)N(C)C(=O)CN(C1CC1)C(=O)[C@H]([C@@H](C)CC)NC3=O [PP2954]
[1]; KD ratio NRAS/KRAS, class symbols
  NRAS/KRAS (ratio of KD value with respect to GDP-bound NRAS wild-type protein to KD value with respect to KRAS): A (a compound having 10 or more and less than 20 is denoted as A)
[2]; KD ratio HRAS/KRAS, class symbols
  HRAS/KRAS (ratio of KD value with respect to GDP-bound HRAS wild-type protein to KD value with respect to KRAS): A (a compound having 10 or more and less than 20 is denoted as A)
